What was measured:
Rattus norvegicus [1] = experiment: Anti-inflammatory activity in Wistar Rattus norvegicus (rat) assessed as inhibition of carrageenan-induced paw edema at 1 mg/kg, ip administered 30 min prior to carrageenan-challenge measured at 2 hr by plethysmometric analysis relative to control; assay type: functional; conditions: route intraperitoneal
Rattus norvegicus [2] = experiment: Anti-inflammatory activity in Wistar Rattus norvegicus (rat) assessed as inhibition of carrageenan-induced paw edema at 1 mg/kg, ip administered 30 min prior to carrageenan-challenge measured at 3 hr by plethysmometric analysis relative to control; assay type: functional; conditions: route intraperitoneal
Rattus norvegicus [3] = experiment: Anti-inflammatory activity in Wistar Rattus norvegicus (rat) assessed as inhibition of carrageenan-induced paw edema at 1 mg/kg, ip administered 30 min prior to carrageenan-challenge measured at 4 hr by plethysmometric analysis relative to control; assay type: functional; conditions: route intraperitoneal
Rattus norvegicus [4] = experiment: Anti-inflammatory activity in Wistar Rattus norvegicus (rat) assessed as inhibition of carrageenan-induced paw edema at 1 mg/kg, ip administered 30 min prior to carrageenan-challenge measured at 6 hr by plethysmometric analysis relative to control; assay type: functional; conditions: route intraperitoneal
Rattus norvegicus [5] = experiment: Anti-inflammatory activity in Wistar Rattus norvegicus (rat) assessed as inhibition of carrageenan-induced paw edema at 1 mg/kg, ip administered 30 min prior to carrageenan-challenge measured at 5 hr by plethysmometric analysis relative to control; assay type: functional; conditions: route intraperitoneal
Rattus norvegicus [6] = experiment: Anti-inflammatory activity in Wistar Rattus norvegicus (rat) assessed as inhibition of carrageenan-induced paw edema at 1 mg/kg, ip administered 30 min prior to carrageenan-challenge measured at 1 hr by plethysmometric analysis relative to control; assay type: functional; conditions: route intraperitoneal
Mus musculus [7] = experiment: Analgesic activity in Swiss albino Mus musculus (mouse) assessed as inhibition of phenylbenzoquinone-induced writhing at 200 mg/kg, sc administered 30 min prior to acetic acid challenge measured for 30 min post phenylbenzoquinone challenge relative to control; assay type: functional; conditions: route subcutaneous
Mus musculus [8] = experiment: Analgesic activity in Swiss albino Mus musculus (mouse) assessed as inhibition of acetic acid-induced writhing at 200 mg/kg, sc administered 30 min prior to acetic acid challenge measured for 30 min post acetic acid challenge relative to control; assay type: functional; conditions: route subcutaneous
Rattus norvegicus [9] = experiment: Anti-inflammatory activity in Wistar Rattus norvegicus (rat) assessed as inhibition of carrageenan-induced paw edema at 0.1 mg/kg, ip administered 30 min prior to carrageenan-challenge measured at 4 hr by plethysmometric analysis relative to control; assay type: functional; conditions: route intraperitoneal
Rattus norvegicus [10] = experiment: Anti-inflammatory activity in Wistar Rattus norvegicus (rat) assessed as inhibition of carrageenan-induced paw edema at 0.1 mg/kg, ip administered 30 min prior to carrageenan-challenge measured at 3 hr by plethysmometric analysis relative to control; assay type: functional; conditions: route intraperitoneal
Rattus norvegicus [11] = experiment: Anti-inflammatory activity in Wistar Rattus norvegicus (rat) assessed as inhibition of carrageenan-induced paw edema at 0.1 mg/kg, ip administered 30 min prior to carrageenan-challenge measured at 6 hr by plethysmometric analysis relative to control; assay type: functional; conditions: route intraperitoneal
Rattus norvegicus [12] = experiment: Anti-inflammatory activity in Wistar Rattus norvegicus (rat) assessed as inhibition of carrageenan-induced paw edema at 0.5 mg/kg, ip administered 30 min prior to carrageenan-challenge measured at 5 hr by plethysmometric analysis relative to control; assay type: functional; conditions: route intraperitoneal
Mus musculus [13] = experiment: Analgesic activity in Swiss albino Mus musculus (mouse) assessed as inhibition of phenylbenzoquinone-induced writhing at 0.5 mg/kg, sc administered 30 min prior to acetic acid challenge measured for 30 min post phenylbenzoquinone challenge relative to control; assay type: functional; conditions: route subcutaneous
Mus musculus [14] = experiment: Analgesic activity in Swiss albino Mus musculus (mouse) assessed as inhibition of phenylbenzoquinone-induced writhing at 0.1 mg/kg, sc administered 30 min prior to acetic acid challenge measured for 30 min post phenylbenzoquinone challenge relative to control; assay type: functional; conditions: route subcutaneous
Mus musculus [15] = experiment: Analgesic activity in Swiss albino Mus musculus (mouse) assessed as inhibition of phenylbenzoquinone-induced writhing at 0.05 mg/kg, sc administered 30 min prior to acetic acid challenge measured for 30 min post phenylbenzoquinone challenge relative to control; assay type: functional; conditions: route subcutaneous
Rattus norvegicus [16] = experiment: Anti-inflammatory activity in ip dosed Wistar Rattus norvegicus (rat) assessed as inhibition of carrageenan-induced paw edema administered 30 min prior to carrageenan-challenge measured at 1 to 6 hr by plethysmometric analysis relative to control; assay type: functional, organism-based
Mus musculus [17] = experiment: Analgesic activity in sc dosed Swiss albino Mus musculus (mouse) assessed as inhibition of phenylbenzoquinone-induced writhing administered 30 min prior to acetic acid challenge measured for 30 min post phenylbenzoquinone challenge relative to control; assay type: functional, organism-based
Rattus norvegicus [18] = experiment: Anti-inflammatory activity in Wistar Rattus norvegicus (rat) assessed as inhibition of carrageenan-induced paw edema at 0.1 mg/kg, ip administered 30 min prior to carrageenan-challenge measured at 5 hr by plethysmometric analysis relative to control; assay type: functional; conditions: route intraperitoneal
Mus musculus [19] = experiment: Analgesic activity in Swiss albino Mus musculus (mouse) assessed as inhibition of acetic acid-induced writhing at 0.5 mg/kg, sc administered 30 min prior to acetic acid challenge measured for 30 min post acetic acid challenge relative to control; assay type: functional; conditions: route subcutaneous
Mus musculus [20] = experiment: Analgesic activity in sc dosed Swiss albino Mus musculus (mouse) assessed as inhibition of acetic acid-induced writhing administered 30 min prior to acetic acid challenge measured for 30 min post acetic acid challenge relative to control; assay type: functional, organism-based
Rattus norvegicus [21] = experiment: Anti-inflammatory activity in Wistar Rattus norvegicus (rat) assessed as inhibition of carrageenan-induced paw edema at 0.1 mg/kg, ip administered 30 min prior to carrageenan-challenge measured at 1 hr by plethysmometric analysis relative to control; assay type: functional; conditions: route intraperitoneal
Rattus norvegicus [22] = experiment: Anti-inflammatory activity in Wistar Rattus norvegicus (rat) assessed as inhibition of carrageenan-induced paw edema at 0.1 mg/kg, ip administered 30 min prior to carrageenan-challenge measured at 2 hr by plethysmometric analysis relative to control; assay type: functional; conditions: route intraperitoneal
Rattus norvegicus [23] = experiment: Anti-inflammatory activity in Wistar Rattus norvegicus (rat) assessed as inhibition of carrageenan-induced paw edema at 0.5 mg/kg, ip administered 30 min prior to carrageenan-challenge measured at 6 hr by plethysmometric analysis relative to control; assay type: functional; conditions: route intraperitoneal
Rattus norvegicus [24] = experiment: Anti-inflammatory activity in Wistar Rattus norvegicus (rat) assessed as inhibition of carrageenan-induced paw edema at 0.5 mg/kg, ip administered 30 min prior to carrageenan-challenge measured at 1 hr by plethysmometric analysis relative to control; assay type: functional; conditions: route intraperitoneal
Mus musculus [25] = experiment: Analgesic activity in Swiss albino Mus musculus (mouse) assessed as inhibition of acetic acid-induced writhing at 0.05 mg/kg, sc administered 30 min prior to acetic acid challenge measured for 30 min post acetic acid challenge relative to control; assay type: functional; conditions: route subcutaneous
Mus musculus [26] = experiment: Analgesic activity in Swiss albino Mus musculus (mouse) assessed as inhibition of acetic acid-induced writhing at 0.1 mg/kg, sc administered 30 min prior to acetic acid challenge measured for 30 min post acetic acid challenge relative to control; assay type: functional; conditions: route subcutaneous
Rattus norvegicus [27] = experiment: Anti-inflammatory activity in Wistar Rattus norvegicus (rat) assessed as inhibition of carrageenan-induced paw edema at 0.5 mg/kg, ip administered 30 min prior to carrageenan-challenge measured at 3 hr by plethysmometric analysis relative to control; assay type: functional; conditions: route intraperitoneal
Rattus norvegicus [28] = experiment: Anti-inflammatory activity in Wistar Rattus norvegicus (rat) assessed as inhibition of carrageenan-induced paw edema at 0.5 mg/kg, ip administered 30 min prior to carrageenan-challenge measured at 4 hr by plethysmometric analysis relative to control; assay type: functional; conditions: route intraperitoneal
Rattus norvegicus [29] = experiment: Anti-inflammatory activity in Wistar Rattus norvegicus (rat) assessed as inhibition of carrageenan-induced paw edema at 0.5 mg/kg, ip administered 30 min prior to carrageenan-challenge measured at 2 hr by plethysmometric analysis relative to control; assay type: functional; conditions: route intraperitoneal

**Q.** For `C[C@@H]1C[C@H]2[C@@H]3CCC4=CC(=O)C=C[C@]4(C)[C@@]3(F)[C@@H](O)C[C@]2(C)[C@@]1(O)C(=O)CO` [DEXAMETHASONE], which inhibition in vivo at 1 mg/kg (Rattus norvegicus [1]) is on record?
**A.** Its inhibition in vivo at 1 mg/kg is 33%.

**Q.** And the inhibition in vivo at 1 mg/kg (Rattus norvegicus [2])?
**A.** The inhibition in vivo at 1 mg/kg was 45%.

**Q.** What about the inhibition in vivo at 1 mg/kg (Rattus norvegicus [3]) of the same compound?
**A.** Its inhibition in vivo at 1 mg/kg is 71%.

**Q.** And the inhibition in vivo at 1 mg/kg (Rattus norvegicus [4])?
**A.** Its inhibition in vivo at 1 mg/kg is 89%.

**Q.** And the inhibition in vivo at 1 mg/kg (Rattus norvegicus [5])?
**A.** The inhibition in vivo at 1 mg/kg was 87%.

**Q.** What about the inhibition in vivo at 1 mg/kg (Rattus norvegicus [6]) of the same compound?
**A.** Its inhibition in vivo at 1 mg/kg is 29%.

**Q.** Which results are given for `CC(=O)Oc1ccccc1C(=O)O`?
**A.** inhibition in vivo at 200 mg/kg (Mus musculus [7]): 60%; inhibition in vivo at 200 mg/kg (Mus musculus [8]): 62%

**Q.** Which inhibition in vivo at 0.1 mg/kg (Rattus norvegicus [9]) does the source give for `CC(C)(O)/C=C/C(=O)[C@](C)(O)[C@H]1[C@H](O)C[C@@]2(C)[C@@H]3CC=C4[C@@H](C=C(O[C@@H]5O[C@H](CO)[C@@H](O)[C@H](O)[C@H]5O)C(=O)C4(C)C)[C@]3(C)CC[C@]12C` here?
**A.** Its inhibition in vivo at 0.1 mg/kg is 60%.

**Q.** And the inhibition in vivo at 0.1 mg/kg (Rattus norvegicus [10])?
**A.** The inhibition in vivo at 0.1 mg/kg was 40%.

**Q.** And the inhibition in vivo at 0.1 mg/kg (Rattus norvegicus [11])?
**A.** Its inhibition in vivo at 0.1 mg/kg is 73%.

**Q.** And the inhibition in vivo at 0.5 mg/kg (Rattus norvegicus [12])?
**A.** The inhibition in vivo at 0.5 mg/kg was 84%.

**Q.** And the inhibition in vivo at 0.5 mg/kg (Mus musculus [13])?
**A.** The inhibition in vivo at 0.5 mg/kg was 89%.

**Q.** And the inhibition in vivo at 0.1 mg/kg (Mus musculus [14])?
**A.** Its inhibition in vivo at 0.1 mg/kg is 84%.

**Q.** And the inhibition in vivo at 0.05 mg/kg (Mus musculus [15])?
**A.** The inhibition in vivo at 0.05 mg/kg was 80%.

**Q.** And the inhibition (Rattus norvegicus [16])?
**A.** The inhibition was “Dose-dependent effect”.

**Q.** What about the inhibition (Mus musculus [17]) of the same compound?
**A.** Its inhibition is “Dose-dependent effect”.

**Q.** And the inhibition in vivo at 0.1 mg/kg (Rattus norvegicus [18])?
**A.** The inhibition in vivo at 0.1 mg/kg was 72%.

**Q.** And the inhibition in vivo at 0.5 mg/kg (Mus musculus [19])?
**A.** The inhibition in vivo at 0.5 mg/kg was 92%.

**Q.** And the inhibition (Mus musculus [20])?
**A.** The inhibition was “Dose-dependent effect”.

**Q.** And the inhibition in vivo at 0.1 mg/kg (Rattus norvegicus [21])?
**A.** The inhibition in vivo at 0.1 mg/kg was 12%.

**Q.** And the inhibition in vivo at 0.1 mg/kg (Rattus norvegicus [22])?
**A.** Its inhibition in vivo at 0.1 mg/kg is 13%.

**Q.** What about the inhibition in vivo at 0.5 mg/kg (Rattus norvegicus [23]) of the same compound?
**A.** Its inhibition in vivo at 0.5 mg/kg is 84%.

**Q.** And the inhibition in vivo at 0.5 mg/kg (Rattus norvegicus [24])?
**A.** Its inhibition in vivo at 0.5 mg/kg is 38%.

**Q.** And the inhibition in vivo at 0.05 mg/kg (Mus musculus [25])?
**A.** Its inhibition in vivo at 0.05 mg/kg is 86%.

**Q.** What about the inhibition in vivo at 0.1 mg/kg (Mus musculus [26]) of the same compound?
**A.** Its inhibition in vivo at 0.1 mg/kg is 88%.

**Q.** What about the inhibition in vivo at 0.5 mg/kg (Rattus norvegicus [27]) of the same compound?
**A.** Its inhibition in vivo at 0.5 mg/kg is 58%.

**Q.** What about the inhibition in vivo at 0.5 mg/kg (Rattus norvegicus [28]) of the same compound?
**A.** Its inhibition in vivo at 0.5 mg/kg is 80%.

**Q.** What about the inhibition in vivo at 0.5 mg/kg (Rattus norvegicus [29]) of the same compound?
**A.** The inhibition in vivo at 0.5 mg/kg was 40%.

From ChEMBL document CHEMBL3046683, “Anti-inflammatory and analgesic activities of a new cucurbitacin isolated from Citrullus colocynthis seeds” (2013)
